From US8883738B2, “Use of a peptide fragment of CD44v6 in the treatment of ophthalmic diseases” (Karlsruher Institut für Technologie, priority 2009, dated 2014)

How the values were obtained:
Erk = assay: Activation of Erk (phospho-Erk Western blot) in HUVEC; type: cell-based, human; settings: 100 μg/ml anti-CD44v6, 100 ng/ml peptide, 0.5 μg/ml CD44v6ECD; for VEGF-A165 induced activation of Erk: VEGF-A165 40 ng/ml
Method: (§1) Activation of RTKs and Erk Serum starved cells (24 h) were induced with the growth factor HGF (20 ng/ml) at 37° C. for 5 min or with VEGF-A165 or VEGF-A121 (40 ng/ml) at 37° C. for 8 min. Where indicated, the cells were treated with blocking reagents prior to induction at 37° C. for 10 min (100 μg/ml anti-CD44v6, 100 ng/ml v6 peptide or 100 ng/ml control peptide, 0.5 μg/ml CD44v6ECD). Cells were washed with icecold PBS. To detect activated Erk, cells were lysed in boiling SDS-sample buffer containing 100 mM dithiothreitol (DTT) and subjected to Western blot analysis using antibodies against phosphorylated Erk. The Erk loading control was performed on the same blot stripped (62.5 mM Tris pH 6.8, 2% SDS, 0.8% DTT) and probed with the Erk antibody. To detect activated VEGFR-2, cells were lysed in reducing sample buffer and the blots of SDS-PAGE gels were probed with an antibody against phosphorylated VEGFR-2. Alternatively, lysates (20 mM Tris pH 7.4, 1 mM EDTA, 1 mM EGTA, 1 mM DTT, 25 mM NaCl, 1.5% Triton X-100, 10 mM NaF, 1 mM PMSF, 1 mM Na-orthovanadate, 1 mM aprotinin and leupeptin) were prepared. After centrifugation, the cleared lysates (12,000 rpm for 15 min) were incubated with VEGFR-2 antibody (clone A-3, Santa Cruz, Heidelberg, Germany) or a mouse IgG control (Santa Cruz, Heidelberg, Germany) at 4° C. overnight followed by incubation with Protein A/G agarose beads (Merck, Darmstadt, Germany) for 2 h at 4° C. The beads were washed three times, boiled in sample buffer and subjected to Western blot analysis using phospho-specific VEGFR-2 antibody. To obtain the loading control, the blots were stripped and reprobed with the VEGFR-2 antibody. Blots were stained using the enhanced chemiluminescence system (ECL, Thermo Fischer Scientific Inc., Waltham, Mass.). Bands in Western blot analysis were quantified with the program Image J.

VEGFR-2 = molecular target: T1, VEGFR-2 (Homo sapiens, UniProt P35968); assay: Activation of VEGFR-2 (phospho-VEGFR-2 Western blot) in HUVEC; type: cell-based; settings: 100 μg/ml anti-CD44v6, 100 ng/ml peptide
T1 construct: endogenous in cells; host or cells: HUVEC (Provitro GmbH)
Method: as §1, with “After centrifugation, the cleared lysates (12,000 rpm for 15 min) were incubated with VEGFR-2 antibody (clone A-3, Santa Cruz, Heidelberg, Germany) or a mouse IgG control (Santa Cruz, Heidelberg, Germany) at 4° C. overnight followed by incubation with Protein A/G agarose beads (Merck, Darmstadt, Germany) for 2 h at 4° C. The beads were washed three times, boiled in sample buffer and subjected to Western blot analysis using phospho-specific VEGFR-2 antibody. To obtain the loading control, the blots were stripped and reprobed with the VEGFR-2 antibody. Blots were stained using the enhanced chemiluminescence system (ECL, Thermo Fischer Scientific Inc., Waltham, Mass.).” left out

MDA-MB231 tumors = assay: Orthotopic MDA-MB231 mammary tumor model, tumor-induced angiogenesis; type: in vivo, SCID mice
Method: Injections of tumor cells MDA-MB231 cells (1×10^6 per animal) were harvested at subconfluency, washed with PBS and resuspended in 50 μl of PBS. The cells were implanted through a skin incision with an insulin syringe very slowly into the mammary fat pad of the fourth mammary complex of anesthetized female SCID mice (strain C.B-17/Ztm-scid). The incision was closed using an interrupted Vicryl suture for the skin (5/0, Ethicon, Norderstedt, Germany). The tumors were allowed to grow for one week, then the animals were divided in groups (6 to 7 animals per group) and treated with 20 μg of anti-mouse CD44v6 (clone 9A4), control IgG (NatuTec, Frankfurt, Germany), mouse v6 peptide or control peptide three times per week i.p. Tumor growth was monitored once per week using a caliper or via fpVCT imaging (see below). The animals were sacrificed 5 weeks after tumor cell implantation, the tumors were excised, measured, divided in halves and fixed in 4% formalin or zinc fixative (0.5 g/l calcium acetate, 5 g/l zinc acetate, 5 g/l zinc chloride in 0.1 M Tris pH 7.4) for 24 h for immunohistological analysis. L3.6pl human pancreatic cancer cells were injected orthotopically. Briefly, a small left abdominal flank incision was made and the spleen was exteriorized. […] The tumor volume was calculated as length×height×width divided by 2. […]

T1 sequence (P35968 20-1356): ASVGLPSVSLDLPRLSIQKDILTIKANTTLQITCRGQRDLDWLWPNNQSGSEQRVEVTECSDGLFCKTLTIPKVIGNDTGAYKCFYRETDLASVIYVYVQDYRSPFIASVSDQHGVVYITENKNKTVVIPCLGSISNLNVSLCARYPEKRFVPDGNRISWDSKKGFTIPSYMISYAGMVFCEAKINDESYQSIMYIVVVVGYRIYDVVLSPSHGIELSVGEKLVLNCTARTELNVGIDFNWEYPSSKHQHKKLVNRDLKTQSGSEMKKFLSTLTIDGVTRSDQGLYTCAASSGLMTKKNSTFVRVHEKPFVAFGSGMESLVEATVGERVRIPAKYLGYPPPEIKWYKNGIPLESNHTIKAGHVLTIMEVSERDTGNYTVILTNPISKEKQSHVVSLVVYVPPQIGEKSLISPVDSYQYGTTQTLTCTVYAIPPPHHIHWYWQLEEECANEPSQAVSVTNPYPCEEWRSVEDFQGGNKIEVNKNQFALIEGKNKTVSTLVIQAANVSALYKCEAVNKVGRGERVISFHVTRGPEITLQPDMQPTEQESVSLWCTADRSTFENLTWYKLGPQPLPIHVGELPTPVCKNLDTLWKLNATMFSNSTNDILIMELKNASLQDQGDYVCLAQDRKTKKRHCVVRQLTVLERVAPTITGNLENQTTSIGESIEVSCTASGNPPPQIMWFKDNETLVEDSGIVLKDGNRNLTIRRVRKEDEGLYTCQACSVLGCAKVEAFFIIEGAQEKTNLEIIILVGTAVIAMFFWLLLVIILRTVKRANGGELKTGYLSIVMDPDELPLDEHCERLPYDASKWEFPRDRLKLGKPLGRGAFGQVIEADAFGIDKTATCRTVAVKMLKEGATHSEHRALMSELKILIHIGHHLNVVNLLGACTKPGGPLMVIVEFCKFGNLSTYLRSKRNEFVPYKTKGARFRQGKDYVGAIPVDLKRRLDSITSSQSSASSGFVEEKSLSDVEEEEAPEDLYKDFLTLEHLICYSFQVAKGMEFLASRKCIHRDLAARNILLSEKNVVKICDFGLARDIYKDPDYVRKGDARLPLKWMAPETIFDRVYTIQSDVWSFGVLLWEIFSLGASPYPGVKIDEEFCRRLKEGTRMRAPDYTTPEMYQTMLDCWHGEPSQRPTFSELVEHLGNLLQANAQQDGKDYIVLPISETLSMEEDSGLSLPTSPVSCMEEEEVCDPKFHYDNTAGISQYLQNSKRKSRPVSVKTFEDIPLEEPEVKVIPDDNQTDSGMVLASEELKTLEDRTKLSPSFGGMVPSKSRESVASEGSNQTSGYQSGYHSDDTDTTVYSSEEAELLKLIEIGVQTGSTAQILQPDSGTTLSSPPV

activation of VEGFR-2 by VEGF-A121 (VEGFR-2; VEGF-A121 40 ng/ml, 0.5 μg/ml CD44v6ECD) | activation of VEGFR-2 by VEGF-A165 (VEGFR-2; VEGF-A165 40 ng/ml) | Substance | HGF induced activation of Erk (Erk; HGF 20 ng/ml) | VEGF-A121 induced activation of Erk (Erk; VEGF-A121 40 ng/ml) | VEGF-A165 induced activation of Erk (Erk) | tumor growth (MDA-MB231 tumors; 20 μg i.p. three times per week for four weeks) | average vessel number (microvessel density) (MDA-MB231 tumors; CD31 stained tumor sections, 20 μg i.p. three times per week, five animals each)
completely blocked | – | CD44v6ECD: soluble CD44v6 ectodomain produced in Pichia pastoris | completely abrogated | completely blocked | completely abrogated | – | –
– | abrogated | KEQWFGNRWHEGYR (listed as Homo sapiens) [v6 human peptide (14mer)] | – | – | abrogated | – | –
– | – | QETWFQNGWQGKNP (listed as Mus musculus) [v6 murine peptide] | – | – | – | not influenced | 183 per mm^2
